Measured values reported in patent US7342100B2, “Hpr6 mutants and uses thereof” (University of Kentucky Research Foundation, priority 2004, dated 2008).

What was measured:
Hpr6 = assay: Induction of Hpr6 expression by drugs, western blot; type: cell-based, human
Description: 1A: western blot analysis showing expression of Hpr6 (top panel) and tubulin (bottom panel) in the cell lines BT549 (lane 1), MCF-7 (lane 2), HCT-100 (lane 3), MDA-MB-231 (lane 4), MDA-MB-435 (lane 5), and HeLa (lane 6). […] The position of molecular weight markers is indicated to the left. […] MDA-MB-231 cells were untreated (upper panel, lane 1), treated with 0.5 or μM doxorubicin (upper panel, lanes 2 and 3), or 0.25 1 μm camptothecin (upper panel, lane 4) for 3 days, and the expression of Hpr6 was analyzed by western blot.
Drug treatment, viability assays, and immunological analyses. Doxorubicin (Sigma, St. Louis, Mo.) was added to culture media and incubated for five days. Cells were incubated with hydrogen peroxide (Fisher), mechlorethamine (kindly provided by Dr. Robert Orlowski, University of North Carolina at Chapel Hill) or camptothecin (Sigma) for 72 hours. Trypan blue and MTT assays were performed using standard techniques as previously described (Hand et al. Journal of Cellular Biochemistry 2003; 90: 534-47). Western blots of cultured cells and tumors were performed as described previously (Hand et al. Journal of Cellular Biochemistry 2003; 90: 534-47; Yang et al. Tumor Biology 2003; 24: 61-9). The antibodies used were as follows: anti-HA (HAll, BAbCo, Berkeley, Calif.), tubulin (Fisher), and Hpr6 (Meyer et al. Steroids 1998; 63: 111-6). Cells were visualized using a VistaVision inverted microscope attached to a Sony DCS F717 digital camera (VWR, Batavia, Ill.). For immunofluorescence, MCF-7/vector and MCF-7/Hpr6 cells (Hand et al. Journal of Cellular Biochemistry 2003; 90: 534-47) were fixed with 3.7% formaldehyde, permeabilized with 0.1% Triton X-100, blocked with 10% normal goat serum, and incubated with the HAll monoclonal antibody. Cells were then washed, incubated with a FITC-Iabeled anti-mouse secondary antibody (Santa Cruz Biotechnology, Santa Cruz, Calif.), washed, mounted, and visualized using a Zeiss fluorescent microscope.
The effect of the Ad-Hpr6-mut adenovirus in response to chemotherapy was analyzed for two reasons. First, the budding yeast homologue of Hpr6 controls resistance to damaging agents.

[1] = Heme binding of purified Hpr6 proteins by absorbance at 400 nm; details: purified protein liberated from GST fusion, triplicate
Method: FIG. 2. […] 2A: Purification of GST-Hpr6 (lane 1) and GST-Hpr6-mut (lane 2) fusion proteins. Proteins were purified using glutathione-agarose and analyzed by SDS-PAGE electrophoresis. 2B: Heme binding by Hpr6 (left column) but not Hpr6-mut (right column). Solubilized proteins were analyzed for absorbance at 400 nm, and measurements were performed in triplicate. 2C: western blot analysis of MDA-MB-231 cells infected with 500, 1000, or 2000 pfu/cell of Ad-Hpr6-mut (lanes 1-3) or 2000 pfu/cell of Ad-LacZ (lane 4). Hpr6 expression was visualized with an antibody to the HA epitope tag. D. The Hpr6-mut protein is overexpressed compared to endogenous Hpr6 following Ad-Hpr6-mut infection. MDA-MB 231 cells were infected with Ad-LacZ (lane 1) or Ad-Hpr6-mut (lane 2) and analyzed by western blots probed for HA (top panel), Hpr6 (middle panel), or tubulin (bottom panel). The positions of the exogenous Hpr6-mut and endogenous Hpr6 protein are indicated in the center panel (top and bottom, respectively).
Fusion protein plasmids, preparation, and analysis. Hpr6-GST fusion proteins contained amino acids 43-195 of the Hpr6 open reading frame. […]
Hpr6 binds to heme, and the D120G mutation in the heme-1 domain blocks heme-binding activity. […] The measurement was performed in triplicate, and the difference between Hpr6 and Hpr6-D120G absorbance was statistically significant (P=0.03). […]

heme binding (absorbance at 400 nm) [1] | Molecule | induction of Hpr6 expression (Hpr6; MCF-7 cells, data not shown) | induction of Hpr6 expression (Hpr6; MDA-MB-231 cells, western blot)
– | CC[C@@]1(O)C(=O)OCc2c1cc1n(c2=O)Cc2cc3ccccc3nc2-1 [camptothecin] | induced | induced
– | COc1cccc2c1C(=O)c1c(O)c3c(c(O)c1C2=O)C[C@@](O)(C(=O)CO)C[C@@H]3O[C@H]1C[C@H](N)[C@H](O)[C@H](C)O1 [doxorubicin] | induced | induced
– | N.N.[Cl][Pt][Cl] [cisplatinum] | – | not induced
bound efficiently to heme | Hpr6: wild-type human heme-1 domain protein Hpr6 | – | –
– | OO [hydrogen peroxide] | – | not induced
absent | Hpr6-D120G: mutant Hpr6 polypeptide, SEQ ID NO:1, aspartic acid 120 in heme binding region mutated to glycine; inactive form | – | –
